Data from patent publication US11617366B2, “Solvents for agricultural applications and pesticide formulations” (Dow Global Technologies LLC, priority 2017, dated 2023).
Like-named read-outs stand apart in the source and are kept apart here.

Experiment: Solubility of pesticide powders in solvents, 2% stepwise increments
Conditions: for Dissolving power: compared with comparative solvents DMSO and DMAA810, for each of the active ingredients evaluated
Experimental: The solubility of various pesticides in these solvents or solvent components are evaluated.

[1] = solvent DEAC (N,N-diethyl acetamide), last concentration before powder not dissolved, 2% steps, no more than 2% lower than actual solubility
[2] = solvent DMAA810, last concentration before powder not dissolved, 2% steps, no more than 2% lower than actual solubility
[3] = solvent DMPA (N,N-dimethyl propanamide), last concentration before powder not dissolved, 2% steps, no more than 2% lower than actual solubility
[4] = solvent DMSO, last concentration before powder not dissolved, 2% steps, no more than 2% lower than actual solubility

## CC(C)(C)C(=O)C(Oc1ccc(Cl)cc1)n1cncn1 (stereo not drawn) [Triazolone]
[1]
  Solubility in DEAC: 54 weight %
[2]
  Solubility in DMAA810: 39 weight %
[3]
  Solubility in DMPA: 58 weight %
[4]
  Solubility in DMSO: 43 weight %

## Abamectin
[1]
  Solubility in DEAC: 50 weight %
[2]
  Solubility in DMAA810: 38 weight %
[3]
  Solubility in DMPA: 51 weight %
[4]
  Solubility in DMSO: 21 weight %

## CCCCC(C#N)(Cn1cncn1)c1ccc(Cl)cc1 (stereo not drawn) [Myclobutanil]
[1]
  Solubility in DEAC: 57 weight %
[2]
  Solubility in DMAA810: 42 weight %
[3]
  Solubility in DMPA: 58 weight %
[4]
  Solubility in DMSO: 57 weight %

## CC(C)(C)C(O)(CCc1ccc(Cl)cc1)Cn1cncn1 (stereo not drawn) [Tebuconazole]
  Solubility in DEAC: 51 weight %
  Solubility in DMPA: 54 weight %
[2]
  Solubility in DMAA810: 37 weight %
[4]
  Solubility in DMSO: 32 weight %

## CCC(=O)N(C)C [DMPA, N,N-dimethyl propanamide]
  Dissolving power: stronger

## CC(C)N1C(=O)N(c2ccccc2)CS/C1=N\C(C)(C)C [Buprofezin]
  Solubility in DEAC: 31 weight %
  Solubility in DMAA810: 22 weight %
  Solubility in DMPA: 33 weight %
  Solubility in DMSO: 1 weight %

## CCN(CC)C(C)=O [DEAC, N,N-diethyl acetamide]
  Dissolving power: stronger

## COC(=O)N(OC)c1ccccc1COc1ccn(-c2ccc(Cl)cc2)n1 [Pyraclostrobin]
[1]
  Solubility in DEAC: 54 weight %
[2]
  Solubility in DMAA810: 42 weight %
[3]
  Solubility in DMPA: 63 weight %
[4]
  Solubility in DMSO: 40 weight %

## Cc1c(COC(=O)[C@@H]2[C@H](/C=C(\Cl)C(F)(F)F)C2(C)C)cccc1-c1ccccc1 (racemic) [Bifenthrin]
[1]
  Solubility in DEAC: 50 weight %
[2]
  Solubility in DMAA810: 33 weight %
[3]
  Solubility in DMPA: 47 weight %
[4]
  Solubility in DMSO: 7 weight %
